Assay results published in patent US20060009448A1, “Metabolites of 4-(3,4-dichloro-phenyl)-2-[2-(4-methyl-piperazin-1-yl)-benzylidene]thiomorpholin-3-one” (Pfizer Inc., priority 2004, published 2006).

Test: Percentages of plasma metabolites in human after oral administration of [14C]-Formula I (HPLC radioprofiling of pooled plasma)
Format: in vivo
Experimental: Six healthy male human subjects were administered a single 10 mg (free base) oral dose of 4-(3,4-dichloro-phenyl)-2-[2-(4-methyl-piperazin-1-yl)-benzylidene]-thiomorpholin-3-one containing 100 μCi of [^14C]-4-(3,4-dichloro-phenyl)-2-[2-(4-methyl-piperazin-1-yl)-benzylidene]-thiomorpholin-3-one (Lot# 49,800-103-1, specific activity 15.66 mCi/mmol, radiochemical purity >99%). [drawing 9]
a). Blood sufficient to provide approximately 10 mL plasma for 4-(3,4-dichloro-phenyl)-2-[2-(4-methyl-piperazin-1-yl)-benzylidene]-thiomorpholin-3-one metabolite identification was collected in heparinized tubes at the following approximate times: 2, 8, 24, 48, 96, and 192 hours after drug administration. Samples were centrifuged at approximately 4° C. and the plasma was stored in appropriately labeled, screw-capped opaque polypropylene tubes at −20° C. until analysis.
Plasma samples were pooled by human subject separately according to the method published by Raid, et al. (Raid, et al: Pharm. Res. (1991), 8(4), 541-543). Aliquots (1 mL) from each pool were extracted with 5 mL of acetonitrile. The mixtures were vortex-mixed for 3 minutes, sonicated for 30 minutes and then centrifuged for 7 minutes at 20° C. Aliquotes of the supernatant (2×500 μL) were counted to determine recovery. Approximately 95.1% of the radioactivity was recovered in the supernatants. The supernatants were combined according to subject number to two equal sets and dried in the Turbovap at room temperature. One set of the dried residue (six subjects) was reconstituted in 150 μL of 10 mM ammonium acetate (pH 4.0)/methanol/dimethyl sulfoxide (1.5:1.5:1) and aliquots of 100 μL were injected onto HPLC-Arc system for profiling. The other set of dried residues were combined and reconstituted in 300 μL of 10 mM ammonium acetate (pH 4.0)/methanol/dimethyl sulfoxide (1.5:1.5:1) and 90 μL was injected onto HPLC-MS/MS system for metabolite identification.

% of Total Radioactivity in Plasma, Subject#1 (human Subject#1, single 10 mg oral dose of [14C]-parent compound): 60.6%
% of Total Radioactivity in Plasma, Subject#2 (human Subject#2, single 10 mg oral dose of [14C]-parent compound): 57.6%
% of Total Radioactivity in Plasma, Subject#3 (human Subject#3, single 10 mg oral dose of [14C]-parent compound): 62.8%
% of Total Radioactivity in Plasma, Subject#4 (human Subject#4, single 10 mg oral dose of [14C]-parent compound): 72.2%
% of Total Radioactivity in Plasma, Subject#5 (human Subject#5, single 10 mg oral dose of [14C]-parent compound): 69.6%
% of Total Radioactivity in Plasma, Subject#6 (human Subject#6, single 10 mg oral dose of [14C]-parent compound): 68.3%
% of Total Radioactivity in Plasma, Mean (mean of six human subjects, single 10 mg oral dose of [14C]-parent compound): 65.2%
SMILES: CN1CCn2c(c(C3SCCN(c4ccc(Cl)c(Cl)c4)C3=O)c3ccccc32)C1 (stereo not shown) [Metabolite M10A]
